Source: patent publication US12610948B2, “Choline chloride adjuvant for fatty acid based biopesticide” (Stratacor, Inc., priority 2020, dated 2026)
Values belong to the molecule of their own block, whether it stands above or below them.

Legend:
[1] = test system: Sensitive Horn Fly (Haematobia irritans); test: Laboratory Petri dish incapacitation test, sensitive horn flies; type: in vivo; conditions: C8C10 organic aqueous emulsion, sensitive strain
From the text: (§1) Mixed sex stable flies (Stomoxys calcitrans) were obtained as pupae from a colony at the University of Nebraska West Central Research and Extension Center, North Platte, Nebraska. Mixed sex horn flies (Haematobia irritans), sensitive and knockdown resistant (Kdr), were obtained as pupae from a colony at The Center for Animal Health and Food Safety, New Mexico State University, Las Cruces, New Mexico. Adult horn and stable flies were allowed to emerge in 1 cubic foot cages at approximately 80 degrees Fahrenheit and were maintained on citrated whole blood (Quad Five, Rygate, Montana). Mixed sex house flies (Musca domestica) were obtained as pupae from Carolina Biological, Charlotte, North Carolina Adults were allowed to emerge in 1 cubic foot cages at approximately 80 degrees Fahrenheit and were maintained on water and sugar cubes. Mixed sex German cockroaches (Blattella germanica) were obtained as adults from Carolina Biological. Prior to use, roaches were kept with the supplied food source in paper towels contained in 1 cubic foot cages. Flies were used 4-6 days post emergence.
(§2) An aqueous emulsion of the octanoic/decanoic acid mix (C8C10) was prepared by addition to an aqueous solution of the sodium salts of the fatty acids, prepared by mixing equal molar amounts of sodium hydroxide and fatty acid.

[2] = test system: house flies (Musca domestica); test: Laboratory Petri dish incapacitation test, house flies; type: in vivo; conditions: aqueous emulsion, N = 3-4
From the text: as §1, §2

[3] = test system: German cockroaches (Blattella germanica); test: Laboratory Petri dish incapacitation test, German cockroaches; type: in vivo; conditions: aqueous emulsion, 6 roaches per dish
From the text: as §1, §2

[4] = test system: stable flies (Stomoxys calcitrans); test: Laboratory Petri dish filter paper incapacitation test, stable flies; type: in vivo; conditions: 1 ml on 9 cm filter paper in Petri dish
From the text: as §1, §2

[5] = test system: insect; conditions: 1% choline chloride in distilled water
From the text: However, several factors (e.g., volatility, skin penetration, odor, irritation of the skin, eyes, and respiratory passages, leaf wilt, incapacitation reversibility, etc.) inherent to fatty acids may limit their practical use for certain applications as a biopesticide, especially when used at a high dosage.

[6] = test system: Knockdown Resistant (Kdr) Horn Fly (Haematobia irritans); test: Laboratory Petri dish incapacitation test, knockdown resistant (Kdr) horn flies; type: in vivo; conditions: C8C10 organic aqueous emulsion, Kdr strain
From the text: as §1, §2

[7] = test system: acetylcholine receptors; conditions: scale where acetylcholine is 100; Keyl et al., 1957; cited from earlier work
[8] = type: in vitro ADME
From the text: The C8910 fatty acids are volatile (Reifenrath, 2015b), and 24-61% of the applied dose evaporated exponentially from clay formulation applied to skin. Skin penetration will also limit duration for dermal treatments (e.g., about 50-75% of the applied dose of octanoic and decanoic acid penetrated cattle skin from mineral oil). To provide finer control of these modes of loss, the development of longer lasting controlled-release formulations (clay nanotubes, disintegrating granules, and microcapsules) for use as premises spray and direct skin application for protecting cattle against biting flies and ticks was investigated (Reifenrath, 2015c), with none of the carriers showing an extended duration. Since that time, however, it has been shown that an aqueous dilution (to 1% C8910) of an emulsifiable concentrate could achieve a similar duration of effectiveness (2-3 days after a single treatment) as the 15% oil formulation. […] The limited duration of such a formulation can be overcome by more frequent application (e.g. walk-through sprayers).

Structure (SMILES): C[N+](C)(C)CCO.[Cl-] [Choline Chloride, 1.0%, Choline chloride]
- % Incapacitation at 24 h (Mean +/− S.D., N = 3), Sensitive [1]: 0 +/− 0%
- % Incapacitation at 24 h (Mean +/− S.D.) [2]: 0 +/− 0%
- % Incapacitation at 24 h (Mean +/− S.D., N = 3) [3]: 0 +/− 0%
- % Incapacitation at 24 h (Mean +/− S.D., N = 3) ([3]; listed as choline chloride): no effect
- % Incapacitation at 24 h (Mean +/− S.D., N = 3) [4]: 4 +/− 3%
- insecticidal effect [5]: little or no insecticidal effect
- % Incapacitation at 24 h (Mean +/− S.D., N = 3), Kdr [6]: 2 +/− 4%

Structure (SMILES): CCCC(=O)OCC[N+](C)(C)C [Formulation C4]
- relative potency [7]: 100

Structure (SMILES): CCCCC(=O)OCC[N+](C)(C)C [Formulation C5]
- relative potency [7]: 54

Structure (SMILES): CCCCCC(=O)OCC[N+](C)(C)C [Formulation C6]
- relative potency [7]: 20

- applied dose penetrated cattle skin [8]: 50-75%
Structure (SMILES): CCCCCCCCCC(=O)O [decanoic acid]

- applied dose penetrated cattle skin [8]: 50-75%
Structure (SMILES): CCCCCCCC(=O)O [octanoic acid]
